{"source": "patent US5422344A", "about": "“Method of treating retroviral infections in mammals” (The United States of America as represented by the …, priority 1990, dated 1995)", "key": {"[1]": {"system": "HIV-IIIB (HIV-1) replication in H9 cells", "assay": "HIV replication in cocultivation of H9/HIV-IIIB chronically infected cells with H9 cells", "type": "cell-based", "procedure": "10 H9/HIV-IIIB (A,D), 100 H9/HIV-IIIB (B,E) or 1000 H9/HIV-IIIB cells (C,F) were cocultivated with 10^5 H9 cells in the presence or absence of 0.01 μM (A,B), 0.2 μM (C) , 0.005 μM (D,E), or 0,005-0.01 μM (F) of CPT for 1 h (A,B,C) or 18h (D,E,F). RT activity was measured in the culture media 7,8, and 9 days post-infection and treatment.\nCocultivation of H9/HIV-IIIB Cells with Uninfected H9 Cells and CPT Treatment: Ten, 100 or 1,000 H9/HIV-IIIB cells were cocultivated with 10^5 H9 cells in the presence or absence of different CPT doses. Cells were incubated for 1 h at 37° C., pelleted, washed and resuspended in fresh media. RT activity in the culture media was measured seven, eight, and nine days after infections, as described above.\nFor a longer treatment period, H9/HIV-IIIB cells were cocultivated with H9 cells in the presence or absence of 0.005-0.01 μM CPT for 18 h at 37° C.\nCPT Inhibition of HIV Replication in Cocultivation of H9/HIV-IIIB Chronically Infected Cells with H9 Uninfected Cells. Since it is likely that HIV infection in vivo involves cell to cell contact and virus production by previously infected cells, the ability of CPT to block the spread of HIV in uninfected H9 cells cocultivated with cells chronically infected with HIV was examined. The results shown in FIG. 2A indicate that 100% inhibition of HIV replication was observed when 10 infected cells were mixed with uninfected cells in the presence of 0.01 μM CPT for 1 h. […] However, increasing the CPT dose to 0.2 μM reduced HIV replication to 15% of control values when 1000 infected cells were mixed with 10^5 uninfected H9 cells (FIG. 2C)."}, "Moloney MuLV": {"system": "Moloney MuLV", "assay": "Moloney MuLV replication in vitro", "type": "cell-based, Moloney murine leukemia virus"}, "viral associated topo I": {"system": "viral associated topo I", "assay": "Inhibition of viral associated topo I activity", "type": "biochemical"}, "[2]": {"system": "Friend virus/spleen focus forming virus (SFFV)", "assay": "Inhibition of Friend virus disease in mice (spleen weight, IP)", "type": "in vivo, male NFS mice", "details": "for Number Friend disease positive (spleen weight >0.2 g) / Spleen weight AVG.: 4 weeks", "from_the_text": "INHIBITION OF FRIEND VIRUS DISEASE IN MICE BY CAMPTOTHECIN. […] The Friend virus/spleen focus forming virus (SFFV) mouse model was used to test CPT in vivo. SFFV is a defective type C retrovirus which induces the rapid onset of erythroleukemia, characterized by severe splenomegaly, and death of the affected animal within 3-6 weeks after innoculation. A well characterized stock of SFFV, in complex with an amphotropic murine C-type virus which induced only a low incidence of lymphoid and myloid disease after a long latency, was injected into adult mice at viral dilutions which would be expected to induce Friend erythroleukemia in essentially 100% of infected mice.\nMale NFS mice were injected IP with 0.5 ml of virus stock to which CPT, disolved in DMSO, was added. The average weight of a mouse was 24 g, and CPT was added from a stock at 10 mg/ml. DMSO was added to A, E and I viral inoculum at 2.8%, the maximum level. Animals were sacrificed 4 weeks after inoculation, and spleens were weighed to determine the incidence of Friend virus induced splenomegaly."}, "H9 cells": {"system": "H9 cells", "assay": "Cell number, viability (trypan blue dye exclusion) and growth of H9 cells", "type": "cell-based", "details": "for Cell No.: 7 days postinfection"}, "[3]": {"assay": "Cell number, viability (trypan blue dye exclusion) and growth of H9 cells", "type": "cell-based", "details": "human, h9 cells"}, "[4]": {"system": "Spleen Focus Forming Virus (SFFV)", "assay": "Inhibition of disease induction in vivo by SFFV, IV or IP", "parameters": "species or system NFS mice", "details": "CPT 20 mg/kg; for # diseased mice (diseased/injected) / AVG. spleen WT.: 4 weeks", "procedure": "Inhibition of Disease Induction In Vivo by Spleen Focus Forming Virus (SFFV) by Intravenous or Intraperitoneal Infection of CPT. In a repeat and extension of the previous experiment, NFS mice were injected either intraperitoneally or intravenously with dilutions of infectious virus stock in the presence or absence of CPT. Virus was mixed with stocks of CPT dissolved in DMSO at 10 mg/ml and adjusted so that mice were treated at 20 mg/kg. In samples without CPT, DMSO was added to an equivalent concentration (9.6%). In both IP and IV injections, 0.5ml was injected per mouse. Animals were monitored and sacrificed 4 weeks after injection. Spleens were weighed, and a spleen weight in excess of 0.2 gm was judged positive for SFFV disease."}, "[5]": {"details": "group B, virus dil. 1/500, CPT 5 mg/kg IP"}, "[6]": {"details": "group C, virus dil. 1/500, CPT 10 mg/kg IP"}, "[7]": {"details": "group D, virus dil. 1/500, CPT 20 mg/kg IP"}, "[8]": {"details": "group F, virus dil. 1/2000, CPT 5 mg/kg IP"}, "[9]": {"details": "group G, virus dil. 1/2000, CPT 10 mg/kg IP"}, "[10]": {"details": "group H, virus dil. 1/2000, CPT 20 mg/kg IP"}, "[11]": {"details": "group J, no virus, CPT 5 mg/kg IP"}, "[12]": {"details": "group K, no virus, CPT 10 mg/kg IP"}, "[13]": {"details": "group L, no virus, CPT 20 mg/kg IP"}}, "note": "Read-outs that look alike come from different tables or passages of the source."}
{"smiles": "CC[C@@]1(O)C(=O)OCc2c1cc1n(c2=O)Cc2cc3ccccc3nc2-1", "note": "[CPT, Camptothecin]", "values": [{"measurement": "activity at 0.2 µM", "setting": "[1]; Human immunodeficiency virus 1, IIIB, H9, 1 h, read-out: HIV replication reduced to % of control values", "result": 15, "unit": "%"}, {"measurement": "inhibition at 0.01 µM", "setting": "[1]; Human immunodeficiency virus 1, IIIB, H9, 1 h, read-out: inhibition of HIV replication, 10 infected cells, 0.01 μM CPT, 1 h", "result": 100, "unit": "%"}, {"measurement": "inhibition at 0.01 µM", "setting": "[1]; Human immunodeficiency virus 1, IIIB, H9, 1 h, read-out: inhibition of HIV replication, 100 infected cells, 0.01 μM CPT, 1 h", "result": 50, "unit": "%"}, {"measurement": "inhibition at 0.01 µM", "setting": "[1]; Human immunodeficiency virus 1, IIIB, H9, 1 h, read-out: inhibition of HIV replication, 1000 infected cells, 0.01 μM CPT, 1 h (data not shown)", "result": 13, "unit": "%"}, {"measurement": "inhibition at 0.005 µM", "setting": "[1]; Human immunodeficiency virus 1, IIIB, H9, 18 h, read-out: inhibition of HIV replication (RT activity), 10 or 100 infected cells, 0.005 μM CPT, 18 h, days 7, 8 and 9", "result": "98 to 100", "unit": "%"}, {"measurement": "inhibitory effect on HIV replication", "setting": "[1]; larger numbers of infected cells, 0.2 μM CPT, or 0.005 μM for 18h", "result": "strong inhibitory effect on HIV replication"}, {"measurement": "inhibiting the initiation of infection by Moloney MuLV", "setting": "Moloney MuLV; cell culture", "result": "has been demonstrated"}, {"measurement": "Moloney MuLV replication", "setting": "Moloney MuLV; in vitro", "result": "inhibits Moloney MuLV replication in vitro"}, {"measurement": "viral associated topo I activity", "setting": "viral associated topo I", "result": "inhibited"}, {"measurement": "Number Friend disease positive (spleen weight >0.2 g)", "setting": "[2]; [5]", "result": "4/5"}, {"measurement": "Spleen weight AVG.", "setting": "[2]; [5]", "result": 0.78, "unit": "g"}, {"measurement": "Number Friend disease positive (spleen weight >0.2 g)", "setting": "[2]; [6]", "result": "3/5"}, {"measurement": "Spleen weight AVG.", "setting": "[2]; [6]", "result": 0.84, "unit": "g"}, {"measurement": "Number Friend disease positive (spleen weight >0.2 g)", "setting": "[2]; [7]", "result": "4/5"}, {"measurement": "Spleen weight AVG.", "setting": "[2]; [7]", "result": 0.28, "unit": "g"}, {"measurement": "Number Friend disease positive (spleen weight >0.2 g)", "setting": "[2]; [8]", "result": "1/5"}, {"measurement": "Spleen weight AVG.", "setting": "[2]; [8]", "result": 0.22, "unit": "g"}, {"measurement": "Number Friend disease positive (spleen weight >0.2 g)", "setting": "[2]; [9]", "result": "0/5"}, {"measurement": "Spleen weight AVG.", "setting": "[2]; [9]", "result": 0.18, "unit": "g"}, {"measurement": "Number Friend disease positive (spleen weight >0.2 g)", "setting": "[2]; [10]", "result": "1/5"}, {"measurement": "Spleen weight AVG.", "setting": "[2]; [10]", "result": 0.22, "unit": "g"}, {"measurement": "Number Friend disease positive (spleen weight >0.2 g)", "setting": "[2]; [11]", "result": "0/5"}, {"measurement": "Spleen weight AVG.", "setting": "[2]; [11]", "result": 0.12, "unit": "g"}, {"measurement": "Number Friend disease positive (spleen weight >0.2 g)", "setting": "[2]; [12]", "result": "0/5"}, {"measurement": "Spleen weight AVG.", "setting": "[2]; [12]", "result": 0.10, "unit": "g"}, {"measurement": "Number Friend disease positive (spleen weight >0.2 g)", "setting": "[2]; [13]", "result": "0/5"}, {"measurement": "Spleen weight AVG.", "setting": "[2]; [13]", "result": 0.12, "unit": "g"}, {"measurement": "induction of erythroleukemia by SFFV", "setting": "[2]; in vivo", "result": "blocks the induction of erythroleukemia by SFFV in vivo"}, {"measurement": "effect on number of mice with enlarged spleens and average spleen weight", "setting": "[2]; vs control, virus infected mice", "result": "reduced the number of mice showing enlarged spleens and the average spleen weight"}, {"measurement": "Cell No.", "setting": "H9 cells; 0.005 μM CPT", "result": "2 × 10^6"}, {"measurement": "Cell No.", "setting": "H9 cells; 0.01 μM CPT", "result": "2.2 × 10^6"}, {"measurement": "Cell No.", "setting": "H9 cells; 0.02 μM CPT", "result": "4 × 10^5"}, {"measurement": "Cell No.", "setting": "H9 cells; 0.05 μM CPT", "result": "1 × 10^5"}, {"measurement": "Cell No.", "setting": "H9 cells; 0.1 μM CPT", "result": "1 × 10^5"}, {"measurement": "Cell No.", "setting": "H9 cells; 0.2 μM CPT", "result": "1 × 10^5"}, {"measurement": "effect on cell viability or cell growth", "setting": "H9 cells; 0.005-0.02 μM CPT", "result": "no effect on cell viability or cell growth was detected"}, {"measurement": "effect on cell growth", "setting": "H9 cells; 0.05-0.2 μM CPT", "result": "cell growth was arrested"}, {"measurement": "effect on cell viability", "setting": "H9 cells; 0.05-0.2 μM CPT, trypan blue dye exclusion", "result": "no effect on cell viability was detected"}, {"measurement": "viability at 168 h, 0.005 µM", "setting": "[3]; 0.005 μM CPT, 7 days postinfection", "result": 100, "unit": "%"}, {"measurement": "viability at 168 h, 0.01 µM", "setting": "[3]; 0.01 μM CPT, 7 days postinfection", "result": 100, "unit": "%"}, {"measurement": "viability at 168 h, 0.02 µM", "setting": "[3]; 0.02 μM CPT, 7 days postinfection", "result": 100, "unit": "%"}, {"measurement": "viability at 168 h, 0.05 µM", "setting": "[3]; 0.05 μM CPT, 7 days postinfection", "result": 100, "unit": "%"}, {"measurement": "viability at 168 h, 0.1 µM", "setting": "[3]; 0.1 μM CPT, 7 days postinfection", "result": 100, "unit": "%"}, {"measurement": "viability at 168 h, 0.2 µM", "setting": "[3]; 0.2 μM CPT, 7 days postinfection", "result": 100, "unit": "%"}, {"measurement": "selectivity ratio", "setting": "[3]; data not shown, read-out: anti-HIV doses vs cytotoxic doses (times lower)", "result": 400}, {"measurement": "# diseased mice (diseased/injected)", "setting": "[4]; no virus, IP", "result": "0/5"}, {"measurement": "AVG. spleen WT.", "setting": "[4]; no virus, IP", "result": 0.10, "unit": "g"}, {"measurement": "# diseased mice (diseased/injected)", "setting": "[4]; no virus, IV", "result": "0/5"}, {"measurement": "AVG. spleen WT.", "setting": "[4]; no virus, IV", "result": 0.10, "unit": "g"}, {"measurement": "injected mice died within 24 hours of causes unrelated to viral disease", "setting": "[4]; virus 1/500, IP", "result": "4/5"}, {"measurement": "# diseased mice (diseased/injected)", "setting": "[4]; virus 1/500, IP", "result": "0/1"}, {"measurement": "AVG. spleen WT.", "setting": "[4]; virus 1/500, IP", "result": 0.20, "unit": "g"}, {"measurement": "# diseased mice (diseased/injected)", "setting": "[4]; virus 1/500, IV", "result": "0/5"}, {"measurement": "AVG. spleen WT.", "setting": "[4]; virus 1/500, IV", "result": 0.10, "unit": "g"}, {"measurement": "injected mice died within 24 hours of causes unrelated to viral disease", "setting": "[4]; virus 1/1000, IP", "result": "3/5"}, {"measurement": "# diseased mice (diseased/injected)", "setting": "[4]; virus 1/1000, IP", "result": "0/2"}, {"measurement": "AVG. spleen WT.", "setting": "[4]; virus 1/1000, IP", "result": 0.15, "unit": "g"}, {"measurement": "# diseased mice (diseased/injected)", "setting": "[4]; virus 1/1000, IV", "result": "0/5"}, {"measurement": "AVG. spleen WT.", "setting": "[4]; virus 1/1000, IV", "result": 0.12, "unit": "g"}]}
